Data published in ChEMBL document CHEMBL1156106 (J Med Chem, 2009).

Tests used:
Rattus norvegicus [1] = assay: Effect on behavioural activity in rat assessed as cocaine-induced lever response at 10 mg/kg, ip pretreated with cocaine for 15 mins by drug-discrimination studies; type: functional; settings: route intraperitoneal
Rattus norvegicus [2] = assay: Effect on behavioural activity in rat assessed as cocaine-induced lever response at 1 mg/kg, po pretreated with cocaine for 90 mins by drug-discrimination studies; type: functional
Rattus norvegicus [3] = assay: Effect on behavioural activity in rat assessed as cocaine-induced lever response at 100 mg/kg, ip pretreated with cocaine for 15 mins by drug-discrimination studies; type: functional; settings: route intraperitoneal
Rattus norvegicus [4] = assay: Effect on behavioural activity in rat assessed as cocaine-induced lever response at 5 mg/kg, ip pretreated with cocaine for 15 mins by drug-discrimination studies; type: functional; settings: route intraperitoneal
[5] = target: Sodium-dependent serotonin transporter (Homo sapiens, UniProt P31645); assay: biochemical; type: cell-based, HEK293
Rattus norvegicus [6] = assay: Effect on behavioural activity in rat assessed as cocaine-induced lever response at 1 mg/kg, po pretreated with cocaine for 180 mins by drug-discrimination studies; type: functional
Rattus norvegicus [7] = assay: Effect on behavioural activity in rat assessed as cocaine-induced lever response at 1 mg/kg, po pretreated with cocaine for 41 mins by drug-discrimination studies; type: functional
Rattus norvegicus [8] = assay: Effect on behavioural activity in rat assessed as cocaine-induced lever response at 1 mg/kg, po pretreated with cocaine for 360 mins by drug-discrimination studies; type: functional
[9] = target: Sodium-dependent noradrenaline transporter (Homo sapiens, UniProt P23975); assay: Displacement of [125I]RTI55 from cloned human NET expressed in HEK293 cells; type: cell-based
Rattus norvegicus [10] = assay: Effect on behavioural activity in rat assessed as cocaine-induced lever response at 25 mg/kg, ip pretreated with cocaine for 15 mins by drug-discrimination studies; type: functional; settings: route intraperitoneal
Rattus norvegicus [11] = assay: Effect on behavioural activity in rat assessed as cocaine-induced lever response at 20 mg/kg, po pretreated with cocaine for 360 mins by drug-discrimination studies; type: functional
Rattus norvegicus [12] = assay: Effect on behavioural activity in rat assessed as cocaine-induced lever response at 10 mg/kg, po pretreated with cocaine for 360 mins by drug-discrimination studies; type: functional
Rattus norvegicus [13] = assay: Effect on behavioural activity in rat assessed as cocaine-induced lever response at 80 mg/kg, po pretreated with cocaine for 45 mins by drug-discrimination studies; type: functional
Mus musculus [14] = assay: Antidepressant activity in ip dosed mouse assessed as time to reach peak stimulation of locomotor activity; type: functional
Rattus norvegicus [15] = assay: Effect on behavioural activity in rat assessed as cocaine-induced lever response at 80 mg/kg, po pretreated with cocaine for 90 mins by drug-discrimination studies; type: functional
Mus musculus [16] = assay: Antidepressant activity in ip dosed mouse assessed as stimulation of locomotor activity; type: functional
Mus musculus [17] = assay: Antidepressant activity in ip dosed mouse assessed as duration of locomotor activity; type: functional
Rattus norvegicus [18] = assay: Effect on behavioural activity in rat assessed as cocaine-induced lever response at 5 mg/kg, po pretreated with cocaine for 180 mins by drug-discrimination studies; type: functional
Rattus norvegicus [19] = assay: Effect on behavioural activity in rat assessed as cocaine-induced lever response at 5 mg/kg, po pretreated with cocaine for 45 mins by drug-discrimination studies; type: functional
Rattus norvegicus [20] = assay: Effect on behavioural activity in rat assessed as cocaine-induced lever response at 40 mg/kg, po pretreated with cocaine for 90 mins by drug-discrimination studies; type: functional
Rattus norvegicus [21] = assay: Effect on behavioural activity in rat assessed as cocaine-induced lever response at 10 mg/kg, po pretreated with cocaine for 45 mins by drug-discrimination studies; type: functional
Rattus norvegicus [22] = assay: Effect on behavioural activity in rat assessed as cocaine-induced lever response at 40 mg/kg, po pretreated with cocaine for 45 mins by drug-discrimination studies; type: functional
Rattus norvegicus [23] = assay: Effect on behavioural activity in po dosed rat assessed as cocaine-induced lever response pretreated with cocaine by drug-discrimination studies; type: functional
Rattus norvegicus [24] = assay: Effect on behavioural activity in rat assessed as cocaine-induced lever response at 10 mg/kg, po pretreated with cocaine for 90 mins by drug-discrimination studies; type: functional
Rattus norvegicus [25] = assay: Effect on behavioural activity in rat assessed as cocaine-induced lever response at 40 mg/kg, po pretreated with cocaine for 360 mins by drug-discrimination studies; type: functional
Rattus norvegicus [26] = assay: Effect on behavioural activity in rat assessed as cocaine-induced lever response at 40 mg/kg, po pretreated with cocaine for 180 mins by drug-discrimination studies; type: functional
Rattus norvegicus [27] = assay: Effect on behavioural activity in rat assessed as cocaine-induced lever response at 5 mg/kg, po pretreated with cocaine for 90 mins by drug-discrimination studies; type: functional
Rattus norvegicus [28] = assay: Effect on behavioural activity in rat assessed as cocaine-induced lever response at 5 mg/kg, po pretreated with cocaine for 360 mins by drug-discrimination studies; type: functional
Rattus norvegicus [29] = assay: Effect on behavioural activity in rat assessed as cocaine-induced lever response at 2.5 mg/kg, ip pretreated with cocaine for 15 mins by drug-discrimination studies; type: functional; settings: route intraperitoneal
Rattus norvegicus [30] = assay: Effect on behavioural activity in rat assessed as cocaine-induced lever response at 80 mg/kg, po pretreated with cocaine for 360 mins by drug-discrimination studies; type: functional
Rattus norvegicus [31] = assay: Effect on behavioural activity in rat assessed as cocaine-induced lever response at 20 mg/kg, po pretreated with cocaine for 180 mins by drug-discrimination studies; type: functional
Rattus norvegicus [32] = assay: Effect on behavioural activity in ip dosed rat assessed as cocaine-induced lever response pretreated with cocaine by drug-discrimination studies; type: functional
Rattus norvegicus [33] = assay: Effect on behavioural activity in rat assessed as cocaine-induced lever response at 80 mg/kg, po pretreated with cocaine for 180 mins by drug-discrimination studies; type: functional
Rattus norvegicus [34] = assay: Effect on behavioural activity in rat assessed as cocaine-induced lever response at 20 mg/kg, po pretreated with cocaine for 45 mins by drug-discrimination studies; type: functional
Rattus norvegicus [35] = assay: Effect on behavioural activity in rat assessed as cocaine-induced lever response at 2.5 mg/kg, po pretreated with cocaine for 90 mins by drug-discrimination studies; type: functional
Rattus norvegicus [36] = assay: Effect on behavioural activity in rat assessed as cocaine-induced lever response at 2.5 mg/kg, po pretreated with cocaine for 45 mins by drug-discrimination studies; type: functional
Rattus norvegicus [37] = assay: Effect on behavioural activity in rat assessed as cocaine-induced lever response at 2.5 mg/kg, po pretreated with cocaine for 180 mins by drug-discrimination studies; type: functional
Rattus norvegicus [38] = assay: Effect on behavioural activity in rat assessed as cocaine-induced lever response at 2.5 mg/kg, po pretreated with cocaine for 360 mins by drug-discrimination studies; type: functional
Mus musculus [39] = assay: Antidepressant activity in ip dosed mouse assessed as stimulation of locomotor activity relative to cocaine; type: functional
Rattus norvegicus [40] = assay: Effect on behavioural activity in rat assessed as cocaine-induced lever response at 20 mg/kg, po pretreated with cocaine for 90 mins by drug-discrimination studies; type: functional

Chain of Sodium-dependent serotonin transporter (P31645 whole entry): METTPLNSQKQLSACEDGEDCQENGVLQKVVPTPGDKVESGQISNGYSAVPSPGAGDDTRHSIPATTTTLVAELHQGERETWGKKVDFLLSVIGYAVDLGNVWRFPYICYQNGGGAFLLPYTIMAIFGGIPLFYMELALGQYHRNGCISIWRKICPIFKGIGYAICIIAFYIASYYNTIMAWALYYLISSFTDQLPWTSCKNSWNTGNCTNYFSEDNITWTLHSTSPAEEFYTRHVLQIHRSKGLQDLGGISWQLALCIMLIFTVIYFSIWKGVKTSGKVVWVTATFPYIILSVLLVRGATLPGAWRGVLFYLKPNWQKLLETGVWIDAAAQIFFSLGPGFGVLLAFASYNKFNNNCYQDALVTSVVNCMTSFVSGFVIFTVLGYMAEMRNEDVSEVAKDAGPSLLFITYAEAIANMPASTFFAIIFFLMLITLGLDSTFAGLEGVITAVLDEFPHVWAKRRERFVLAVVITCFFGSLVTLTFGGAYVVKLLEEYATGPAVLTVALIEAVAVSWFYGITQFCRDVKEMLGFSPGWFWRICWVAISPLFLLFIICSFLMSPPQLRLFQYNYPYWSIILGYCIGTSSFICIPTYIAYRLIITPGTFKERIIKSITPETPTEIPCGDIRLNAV
Chain of Sodium-dependent noradrenaline transporter (P23975 whole entry): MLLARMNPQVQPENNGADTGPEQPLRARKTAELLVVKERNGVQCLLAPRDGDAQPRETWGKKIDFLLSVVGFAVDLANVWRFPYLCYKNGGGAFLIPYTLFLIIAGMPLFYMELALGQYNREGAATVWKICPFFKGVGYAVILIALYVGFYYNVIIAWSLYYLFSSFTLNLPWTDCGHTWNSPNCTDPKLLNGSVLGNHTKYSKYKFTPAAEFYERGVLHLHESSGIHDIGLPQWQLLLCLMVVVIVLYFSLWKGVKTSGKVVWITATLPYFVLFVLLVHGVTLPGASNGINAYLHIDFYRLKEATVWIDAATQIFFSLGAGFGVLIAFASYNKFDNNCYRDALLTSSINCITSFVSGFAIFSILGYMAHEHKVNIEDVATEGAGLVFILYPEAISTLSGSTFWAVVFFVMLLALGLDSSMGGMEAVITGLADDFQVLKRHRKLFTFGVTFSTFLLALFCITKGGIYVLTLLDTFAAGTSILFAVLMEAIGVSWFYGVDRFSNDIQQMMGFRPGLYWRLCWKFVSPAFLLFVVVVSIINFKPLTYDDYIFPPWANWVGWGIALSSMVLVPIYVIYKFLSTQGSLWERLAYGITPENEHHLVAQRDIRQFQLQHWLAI

SMILES: CC(NC(C)(C)C)C(=O)c1ccc(Cl)cc1 (centres undefined)
- Activity (Rattus norvegicus [1]): 32.7%
- Activity (Rattus norvegicus [2]): 0%
- Activity (Rattus norvegicus [3]): 33.3%
- Activity (Rattus norvegicus [4]): 0.1%
- Ki [5]: > 10 µM
- Activity (Rattus norvegicus [6]): 0%
- Activity (Rattus norvegicus [7]): 0%
- Activity (Rattus norvegicus [8]): 0%
- Ki [9]: > 10 µM
- Activity (Rattus norvegicus [10]): 18.1%

SMILES: CCCC(NC(C)(C)C)C(=O)c1cccc(Cl)c1 (centres undefined)
- Activity (Rattus norvegicus [1]): 33.3%
- Activity (Rattus norvegicus [11]): 0%
- Activity (Rattus norvegicus [12]): 0%
- Activity (Rattus norvegicus [13]): 100%
- Time to peak locomotor stimulation (Mus musculus [14]): 90 min
- Activity (Rattus norvegicus [15]): 100%
- ED50 (Mus musculus [16]): 15.5 mg/kg
- Activity (Rattus norvegicus [4]): 17.2%
- Time (Mus musculus [17]): 210 min
- Ki [5]: > 10 µM
- Activity (Rattus norvegicus [18]): 22%
- Activity (Rattus norvegicus [19]): 17%
- Activity (Rattus norvegicus [20]): 17%
- Activity (Rattus norvegicus [21]): 33%
- Activity (Rattus norvegicus [22]): 50%
- ED50 (Rattus norvegicus [23]): 23.2 mg/kg
- Activity (Rattus norvegicus [24]): 0%
- Activity (Rattus norvegicus [25]): 16%
- Activity (Rattus norvegicus [26]): 17%
- Activity (Rattus norvegicus [27]): 0%
- Activity (Rattus norvegicus [28]): 0%
- Activity (Rattus norvegicus [29]): 0.2%
- Activity (Rattus norvegicus [30]): 1%
- Activity (Rattus norvegicus [31]): 0%
- ED50 (Rattus norvegicus [32]): 7.8 mg/kg
- Activity (Rattus norvegicus [10]): 83.3%
- Activity (Rattus norvegicus [33]): 50%
- Activity (Rattus norvegicus [34]): 33%
- Activity (Rattus norvegicus [35]): 0%
- Activity (Rattus norvegicus [36]): 0%
- Activity (Rattus norvegicus [37]): 0%
- Activity (Rattus norvegicus [38]): 0%
- Activity (Mus musculus [39]): 108%
- Activity (Rattus norvegicus [40]): 33%
